# Test results: ChEMBL document CHEMBL3856231 (J Med Chem, 2016)
# Calls of active or inactive are those of the source. No cut-off for these calls is given here.
# How the values were obtained:
# [1] = Dose normalized AUC in Sprague-Dawley rat at 5 mg/kg, po by LC/MS/MS analysis; assay type: ADME, organism-based; settings: in vivo
# [2] = Apparent permeability from apical to basolateral side in human Caco2 cells; assay type: ADME, cell-based; settings: Caco-2
# [3] = Cmax in Sprague-Dawley rat brain at 30 mg/kg, po by LC/MS/MS analysis; assay type: ADME, organism-based; design: dose 30 mg/kg, route oral
# [4] = AUC (0 to infinity) in CD-1 mouse at 10 mg/kg, po by LC/MS/MS analysis; assay type: ADME, organism-based; design: dose 10 mg/kg, time infinity, route oral; settings: in vivo
# Mus musculus = test: Inhibition of FAK phosphorylation in human CWR22 cells xenografted in Nu/Nu mouse at 55 mg/kg, po administered as single dose by immunoblot analysis; assay type: functional, organism-based; settings: TDE = time-dependent effect
# [5] = Drug level in plasma of NPM-ALK expressing human SUP-M2 cells xenografted mouse at 30 mg/kg, po administered as single dose measured at 24 hrs by LC-MS/MS analysis; assay type: ADME, organism-based
# SUP-M2 [6] = test: Antitumor activity against human SUP-M2 cells expressing NPM-ALK xenografted in SCID-Beige mouse assessed as tumor regression at 30 mg/kg, po qd administered for 12 days measured during compound dosing; assay type: functional, organism-based
# Cytochrome P450 2D6 = Cytochrome P450 2D6 (Homo sapiens, UniProt P10635); test: Inhibition of CYP2D6 in human liver microsomes using dextromethorphan as substrate in presence of NADPH by LC/MS/MS analysis; assay type: ADME
# Chain of Cytochrome P450 2D6 (P10635 whole entry): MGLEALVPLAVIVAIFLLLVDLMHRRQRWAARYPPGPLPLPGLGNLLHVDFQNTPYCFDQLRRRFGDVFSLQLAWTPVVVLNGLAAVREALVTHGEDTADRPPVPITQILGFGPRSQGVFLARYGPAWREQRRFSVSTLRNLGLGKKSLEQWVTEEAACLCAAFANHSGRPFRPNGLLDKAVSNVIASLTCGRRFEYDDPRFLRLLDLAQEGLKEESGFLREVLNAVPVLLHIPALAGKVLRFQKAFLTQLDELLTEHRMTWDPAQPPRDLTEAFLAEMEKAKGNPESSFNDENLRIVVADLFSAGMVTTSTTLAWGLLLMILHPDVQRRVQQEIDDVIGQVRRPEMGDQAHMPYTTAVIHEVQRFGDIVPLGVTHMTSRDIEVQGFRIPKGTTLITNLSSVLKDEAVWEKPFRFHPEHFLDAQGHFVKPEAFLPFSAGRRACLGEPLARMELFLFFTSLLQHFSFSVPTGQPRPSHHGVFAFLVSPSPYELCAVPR
# [7] = Drug level in plasma of FAK expressing human CWR22 cells xenografted Nu/Nu mouse at 55 mg/kg, po administered as single dose measured at 2 hrs by LC-MS/MS analysis; assay type: ADME, organism-based
# [8] = Tmax in CD-1 mouse at 10 mg/kg, po by LC/MS/MS analysis; assay type: ADME, organism-based; settings: in vivo
# SUP-M2 [9] = test: Antitumor activity against human SUP-M2 cells expressing NPM-ALK xenografted in po dosed SCID-Beige mouse assessed as reduction in tumor volume administered twice daily for 12 days measured during compound dosing; assay type: functional, organism-based
# [10] = Drug level in tumor of FAK expressing human CWR22 cells xenografted Nu/Nu mouse at 55 mg/kg, po administered as single dose measured at 2 hrs by LC-MS/MS analysis; assay type: ADME, organism-based, Neoplasm; settings: read-out: Drug uptake
# [11] = Oral bioavailability in CD-1 mouse at 10 mg/kg by LC/MS/MS analysis; assay type: ADME, organism-based; settings: in vivo
# [12] = Drug level in tumor of NPM-ALK expressing human SUP-M2 cells xenografted mouse at 30 mg/kg, po administered as single dose measured at 12 hrs by LC-MS/MS analysis; assay type: ADME, organism-based, Neoplasm; settings: read-out: Drug uptake
# [13] = Drug level in plasma of FAK expressing human CWR22 cells xenografted Nu/Nu mouse at 55 mg/kg, po administered as single dose measured at 24 hrs by LC-MS/MS analysis; assay type: ADME, organism-based
# [14] = AUC (0 to infinity) in Sprague-Dawley rat at 5 mg/kg, po by LC/MS/MS analysis; assay type: ADME, organism-based; design: dose 5 mg/kg, time infinity, route oral; settings: in vivo
# [15] = Drug level in plasma of NPM-ALK expressing human SUP-M2 cells xenografted mouse at 30 mg/kg, po administered as single dose measured at 6 hrs by LC-MS/MS analysis; assay type: ADME, organism-based
# [16] = Half life in cynomolgus monkey at 1 mg/kg, iv by LC/MS/MS analysis; assay type: ADME, organism-based, Macaca fascicularis; settings: in vivo
# IBC [17] = test: Cytotoxicity against human IBC cells assessed as reduction in cell proliferation; assay type: functional, cell-based
# [18] = Drug level in plasma of FAK expressing human CWR22 cells xenografted Nu/Nu mouse at 55 mg/kg, po administered as single dose measured at 12 hrs by LC-MS/MS analysis; assay type: ADME, organism-based
# [19] = Volume of distribution in CD-1 mouse at 1 mg/kg, iv by LC/MS/MS analysis; assay type: ADME, organism-based; settings: in vivo
# NCI-H3122 = test: (§1) Cytotoxicity against human NCI-H3122 cells expressing EML4-ALK assessed as cell growth inhibition; assay type: functional, cell-based
# [20] = as §1; assay type: functional, cell-based
# [21] = AUC (0 to infinity) in CD-1 mouse at 1 mg/kg, iv by LC/MS/MS analysis; assay type: ADME, organism-based; design: dose 1 mg/kg, time infinity, route intravenous; settings: in vivo
# [22] = Dose normalized AUC in CD-1 mouse at 10 mg/kg, po by LC/MS/MS analysis; assay type: ADME, organism-based; settings: in vivo
# [23] = Antitumor activity against human HCC827 cells expressing activated FAK xenografted in SCID-Beige mouse assessed as incidence of partial tumor regression at 55 mg/kg, po bid administered for 28 days; assay type: functional
# [24] = Clearance in CD-1 mouse at 1 mg/kg, iv by LC/MS/MS analysis; assay type: ADME, organism-based; settings: in vivo
# [25] = Half life in CD-1 mouse liver microsomes by LC/MS/MS analysis; assay type: ADME
# [26] = AUC (0 to infinity) in cynomolgus monkey at 1 mg/kg, iv by LC/MS/MS analysis; assay type: ADME, organism-based, Macaca fascicularis; design: dose 1 mg/kg, route intravenous, time infinity; settings: in vivo
# IBC [27] = test: Antitumor activity against human IBC cells xenografted in SCID mouse; assay type: functional
# HCC827 = test: Antitumor activity against human HCC827 cells expressing activated FAK xenografted in SCID-Beige mouse assessed as tumor growth inhibition at 30 mg/kg, po bid administered for 28 days; assay type: functional, organism-based
# [28] = Clearance in cynomolgus monkey at 1 mg/kg, iv by LC/MS/MS analysis; assay type: ADME, organism-based, Macaca fascicularis; settings: in vivo
# [29] = Drug level in tumor of FAK expressing human CWR22 cells xenografted Nu/Nu mouse at 55 mg/kg, po administered as single dose measured at 12 hrs by LC-MS/MS analysis; assay type: ADME, organism-based, Neoplasm; settings: read-out: Drug uptake
# [30] = Tmax in cynomolgus monkey at 10 mg/kg, po by LC/MS/MS analysis; assay type: ADME, organism-based, Macaca fascicularis; settings: in vivo
# [31] = biological target: ALK tyrosine kinase receptor (Homo sapiens, UniProt Q9UM73); settings: 1 uM
# Chain of ALK tyrosine kinase receptor (Q9UM73 19-1620 limits assumed): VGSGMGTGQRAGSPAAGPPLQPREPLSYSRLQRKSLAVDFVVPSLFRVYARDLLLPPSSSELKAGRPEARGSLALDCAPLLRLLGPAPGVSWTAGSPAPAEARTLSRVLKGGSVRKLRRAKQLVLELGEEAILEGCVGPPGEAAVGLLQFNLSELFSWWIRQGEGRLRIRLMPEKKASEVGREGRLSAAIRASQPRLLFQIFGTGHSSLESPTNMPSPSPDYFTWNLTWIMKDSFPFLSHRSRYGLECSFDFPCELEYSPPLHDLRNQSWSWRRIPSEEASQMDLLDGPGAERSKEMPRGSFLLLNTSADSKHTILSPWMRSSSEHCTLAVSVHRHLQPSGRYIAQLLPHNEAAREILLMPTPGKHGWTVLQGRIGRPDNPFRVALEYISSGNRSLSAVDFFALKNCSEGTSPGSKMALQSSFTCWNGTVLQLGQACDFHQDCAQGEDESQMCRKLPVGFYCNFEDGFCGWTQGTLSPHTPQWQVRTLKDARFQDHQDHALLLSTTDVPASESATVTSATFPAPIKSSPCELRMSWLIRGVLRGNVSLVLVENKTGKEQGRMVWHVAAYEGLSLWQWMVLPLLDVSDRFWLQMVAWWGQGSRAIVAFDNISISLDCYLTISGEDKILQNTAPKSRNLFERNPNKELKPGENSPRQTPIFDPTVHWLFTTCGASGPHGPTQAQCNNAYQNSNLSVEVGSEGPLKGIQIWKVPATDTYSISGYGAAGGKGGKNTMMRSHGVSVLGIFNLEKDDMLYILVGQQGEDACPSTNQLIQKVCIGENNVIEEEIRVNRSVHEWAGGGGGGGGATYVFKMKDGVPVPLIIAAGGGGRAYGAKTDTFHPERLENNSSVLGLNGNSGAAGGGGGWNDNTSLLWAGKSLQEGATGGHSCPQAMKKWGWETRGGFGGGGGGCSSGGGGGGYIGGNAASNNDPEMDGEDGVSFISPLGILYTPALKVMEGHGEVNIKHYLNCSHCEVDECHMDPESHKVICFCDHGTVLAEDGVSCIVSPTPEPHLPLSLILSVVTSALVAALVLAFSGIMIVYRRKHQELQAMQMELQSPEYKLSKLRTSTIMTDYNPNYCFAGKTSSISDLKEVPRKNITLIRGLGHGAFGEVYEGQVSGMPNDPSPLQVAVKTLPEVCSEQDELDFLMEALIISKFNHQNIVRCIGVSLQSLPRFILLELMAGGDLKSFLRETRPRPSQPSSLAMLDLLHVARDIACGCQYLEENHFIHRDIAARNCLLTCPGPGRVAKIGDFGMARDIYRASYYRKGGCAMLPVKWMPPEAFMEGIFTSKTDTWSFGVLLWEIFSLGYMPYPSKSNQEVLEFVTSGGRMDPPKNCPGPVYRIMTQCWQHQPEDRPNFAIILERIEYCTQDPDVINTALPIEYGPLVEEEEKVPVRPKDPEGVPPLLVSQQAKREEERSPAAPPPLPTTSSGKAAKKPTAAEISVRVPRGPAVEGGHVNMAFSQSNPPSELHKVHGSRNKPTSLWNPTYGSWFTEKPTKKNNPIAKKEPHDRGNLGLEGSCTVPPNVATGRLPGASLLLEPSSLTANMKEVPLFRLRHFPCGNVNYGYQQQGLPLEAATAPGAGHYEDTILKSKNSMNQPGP
# Description: Inhibition of human ALK (1088 to 1409 residues) expressed in mammalian system at 1 uM by KINOMEscan assay
# [32] = Oral bioavailability in Sprague-Dawley rat at 5 mg/kg by LC/MS/MS analysis; assay type: ADME, organism-based; settings: in vivo
# [33] = Drug level in plasma of NPM-ALK expressing human SUP-M2 cells xenografted mouse at 30 mg/kg, po administered as single dose measured at 12 hrs by LC-MS/MS analysis; assay type: ADME, organism-based
# [34] = Drug level in tumor of FAK expressing human CWR22 cells xenografted Nu/Nu mouse at 55 mg/kg, po administered as single dose measured at 24 hrs by LC-MS/MS analysis; assay type: ADME, organism-based, Neoplasm; settings: read-out: Drug uptake
# [35] = Half life in CD-1 mouse at 1 mg/kg, iv by LC/MS/MS analysis; assay type: ADME, organism-based; settings: in vivo
# [36] = AUC (0 to 48 hrs) in Sprague-Dawley rat brain at 30 mg/kg, po by LC/MS/MS analysis; assay type: ADME, organism-based; design: dose 30 mg/kg, time < 48 hr, route oral
# [37] = biological target: Voltage-gated inwardly rectifying potassium channel KCNH2 (Homo sapiens, UniProt Q12809); test: Inhibition of human ERG
# Chain of Voltage-gated inwardly rectifying potassium channel KCNH2 (Q12809 whole entry): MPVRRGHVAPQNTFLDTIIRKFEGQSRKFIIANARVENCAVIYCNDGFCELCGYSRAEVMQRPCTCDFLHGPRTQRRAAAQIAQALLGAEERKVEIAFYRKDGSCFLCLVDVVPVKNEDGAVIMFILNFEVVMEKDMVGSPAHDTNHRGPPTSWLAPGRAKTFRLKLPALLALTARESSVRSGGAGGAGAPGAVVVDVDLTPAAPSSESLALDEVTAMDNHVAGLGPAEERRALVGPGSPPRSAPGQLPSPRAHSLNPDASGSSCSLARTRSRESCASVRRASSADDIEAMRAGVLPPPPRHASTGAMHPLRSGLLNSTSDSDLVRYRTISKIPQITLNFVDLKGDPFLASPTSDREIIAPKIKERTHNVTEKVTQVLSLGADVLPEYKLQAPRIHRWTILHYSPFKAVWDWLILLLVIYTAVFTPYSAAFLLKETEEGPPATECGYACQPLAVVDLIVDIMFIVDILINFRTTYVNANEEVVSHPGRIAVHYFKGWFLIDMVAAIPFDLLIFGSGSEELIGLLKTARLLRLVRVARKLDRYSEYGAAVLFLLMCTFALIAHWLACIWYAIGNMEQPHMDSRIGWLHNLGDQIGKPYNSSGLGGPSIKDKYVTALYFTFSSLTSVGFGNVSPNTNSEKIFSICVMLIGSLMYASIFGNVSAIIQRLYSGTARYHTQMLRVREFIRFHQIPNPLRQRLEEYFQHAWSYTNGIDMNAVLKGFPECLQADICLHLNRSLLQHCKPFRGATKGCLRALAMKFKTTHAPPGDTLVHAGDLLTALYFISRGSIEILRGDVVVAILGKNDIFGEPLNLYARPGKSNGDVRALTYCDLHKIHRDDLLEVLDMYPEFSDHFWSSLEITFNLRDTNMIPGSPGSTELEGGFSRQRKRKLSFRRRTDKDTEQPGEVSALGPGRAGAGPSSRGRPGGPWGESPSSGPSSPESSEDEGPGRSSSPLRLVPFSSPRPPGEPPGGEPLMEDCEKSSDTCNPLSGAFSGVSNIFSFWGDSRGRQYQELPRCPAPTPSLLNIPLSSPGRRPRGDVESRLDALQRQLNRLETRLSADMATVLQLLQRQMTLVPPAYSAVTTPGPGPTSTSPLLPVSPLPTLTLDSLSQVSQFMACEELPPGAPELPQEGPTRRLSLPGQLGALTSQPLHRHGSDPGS
# [38] = Half life in Sprague-Dawley rat at 1 mg/kg, iv by LC/MS/MS analysis; assay type: ADME, organism-based; settings: in vivo
# [39] = Antitumor activity against human CTG-0142 cells expressing activated FAK xenografted in mouse assessed as tumor growth inhibition at 55 mg/kg, po bid administered for 28 days measured during compound dosing; assay type: functional; settings: CTG-0142, po, 672 h, read-out: TGI
# [40] = Cytotoxicity against human KARPAS299 cells expressing NPM-ALK assessed as cell growth inhibition; assay type: functional, cell-based; settings: KARPAS-299
structure (smiles),measurement,setting,value
CNC(=O)c1ccccc1Nc1nc(Nc2ccc3c(c2OC)CCC[C@H](N2CCN(CCO)CC2)C3)ncc1Cl [CEP-37440],AUC/dose,[1],1672 ng·h/mL
same,Papp A→B,[2],> 1 ×10⁻⁶ cm/s
same,Cmax,[3],3160 ng/g
same,AUC(0-inf),[4],16400 ng·h/mL
same,inhibition,Mus musculus,Tde
same,concentration at 24 h,[5],1160 ng/mL
same,Activity,SUP-M2 [6],Active
same,IC50,Cytochrome P450 2D6,> 5600 nM
same,concentration at 2 h,[7],4130 ng/mL
same,Tmax,[8],2 h
same,Activity,SUP-M2 [9],Dose-dependent effect
same,concentration at 2 h,[10],6070 ng/g
same,bioavailability,[11],102%
same,concentration at 12 h,[12],8580 ng/g
same,concentration at 24 h,[13],1190 ng/mL
same,AUC(0-inf),[14],8360 ng·h/mL
same,concentration at 6 h,[15],3360 ng/mL
same,half-life,[16],5.4 h
same,growth inhibition (GI),IBC [17],Dose-dependent effect
same,concentration at 12 h,[18],541 ng/mL
same,Vd,[19],2.7 L/kg
same,growth inhibition (GI),NCI-H3122,Dose-dependent effect
same,IC50,[20],1780 nM
same,AUC(0-inf),[21],1610 ng·h/mL
same,AUC/dose,[22],1643 ng·h/mL
same,Activity,[23],60%
same,clearance,[24],10 mL/min/kg
same,half-life,[25],0.667 h
same,AUC(0-inf),[26],554 ng·h/mL
same,Activity,IBC [27],Dose-dependent effect
same,TGI,HCC827,Active
same,clearance,[28],30 mL/min/kg
same,concentration at 12 h,[29],3810 ng/g
same,Tmax,[30],6 h
same,inhibition,[31],> 90%
same,bioavailability,[32],42%
same,concentration at 12 h,[33],4030 ng/mL
same,concentration at 24 h,[34],8680 ng/g
same,half-life,[35],3 h
same,AUC(0-t) at 48 h,[36],61600 ng·h/mL
same,IC50,[37],> 10000 nM
same,half-life,[38],2 h
same,inhibition in vivo at 55 mg/kg,[39],75%
same,IC50,[40],131 nM
